Laboratory results: patent US11197885B2, “Collagen enhancing agent made from low acyl gellan gum, methods of making and methods of using the same” (The University of Toledo, priority 2015, dated 2021)

Columns and labels:
[1] = system: phosphorylated CREB in mouse embryonic cortical neurons; test: nuclear p-CREB immunostaining in embryonic cortical neurons (Example 2); format: cell-based; settings: 1 μM, 24 h
Experimental: (§1) Differentiated PC12 cells and mouse embryonic cortical neurons (E17, DIV14) were treated with mock, dextran, alginate, HA-GAGR, or midi-GAGR (1 μM) for 24 h and fixed in 3.7% paraformaldehyde. The fixed cells and neurons were immunostained with antibodies against α-tubulin and phosopho-CREB (p-CREB) along with DAPI (nucleus).

[2] = system: differentiated dopaminergic PC12 cells exposed to 30 μM 6-OHDA; test: LIVE/DEAD viability of differentiated PC12 cells exposed to 6-OHDA; format: cell-based; settings: 1 μM for 6 h, then 30 μM 6-OHDA for 24 h
Experimental: Differentiated dopaminergic PC12 cells and primary mouse embryonic cortical neurons (E17, DIV14) were treated with mock (H2O) or 1 μM of dextran, alginate, HA-GAGR, or midi-GAGR for 6 h and insulated by oxidative stressors (30 μM 6-OHDA [PC12] and 10 μM amyloid β peptide [cortical neurons]) for 24 h.

[3] = system: phosphorylated CREB in differentiated PC12 cells; test: nuclear p-CREB immunostaining in differentiated PC12 cells; format: cell-based; settings: 1 μM, 24 h
Experimental: as §1

[4] = system: mouse cortical neurons (E17, DIV5); test: LIVE/DEAD assay, pre-treatment of mouse cortical neurons before 4HNE, H2O2 or Aβ42; format: cell-based
Description: (§2) The protective effect of polysaccharides on primary cortical neurons from 4HNE, H2O2, and Aβ42 peptide (Sigma) was examined using LIVE/DEAD® Viability/Cytotoxicity Assay Kit (Life Technologies). Female pregnant mice (BALB/C, E17, Charles River Laboratories International, Inc.) or female pregnant SD rats (E17, bred in house) were anesthetized and dissected to obtain 8-9 embryos per animal. Cortical neurons were isolated from embryonic brains and differentiated on poly-L-lysine-coated coverslips in B27/neurobasal medium. For drug treatment before free radical treatment, mouse cortical neurons (5 days in vitro [DIV5]) were treated with vehicle (H2O), 1 μM of 5 kD dextran (Sigma), alginate (Sigma), midi-GAGR, 0.01 μM of high acyl gellan gum (HA-GAGR, CPKelco Co.), or 0.1 μM of LA-GAGR for 24 h and then treated with 10 μM 4HNE or 50 μM H2O2 for 24 h, or 2 μM Aβ42 peptide for 48 h prior to viability/cytotoxicity assay. For drug co-treatment with free radicals, rat cortical neurons (DIV5) were treated with 1 μM of dextran, alginate, or midi-GAGR, 0.01 μM of HA-GAGR, or 0.1 μM of LA-GAGR along with either 10 μM 4HNE (24 h) or 2 μM Aβ42 peptide (48 h). To examine the extent to which midi-GAGR-mediated neuroprotection depends on FGFR1, rat cortical neurons (E17, DIV5) were pre-treated with 4 μM SU5402 (Sigma) for 6 h and treated with 10 μM 4HNE and either vehicle or 1 μM midi-GAGR for 24 h prior to cell viability/cytotoxicity assay. As controls, neurons were treated with SU5402, midi-GAGR, 4HNE, 4HNE plus midi-GAGR, or SU5402 plus midi-GAGR.
For cell viability/cytotoxicity measurement, neurons on glass coverslips were incubated in 1×PBS containing 2 μM calcein AM (live cells: green) and 4 μM ethidium homodimer-1 (dead cells: red) for 10 min at 37° C. Immediately thereafter, neurons were imaged by 10×objective using a fluorescence Olympus IX71 microscope (Olympus America Inc., Center Valley, Pa.) and, for the acquisition of high-quality images, using TCS SP5 multi-photon laser scanning confocal microscope.
Midi-GAGR attenuated neurite atrophy caused by free reactive radicals. It is now shown herein that midi-GAGR protect neurons from the death caused by free radical insults. The extent to which midi-GAGR protects the primary culture of rodent cortical neurons from 4HNE and H2O2 was determined. In addition to the radicals, amyloid β peptide (Aβ42) was also tested. Aβ42 peptide is a major causative factor that causes oxidative stress and neuron death. Mouse cortical neurons (E17, DIV5) were treated with 10 μM 4HNE (24 h), 50 μM H2O2 (24 h), or 2 μM Aβ42 peptide (48 h) after the treatment of the neurons with vehicle (H2O), midi-GAGR (1 μM), dextran (1 μM), alginate (1 μM), LA-GAGR (0.1 μM), or HA-GAGR (0.01 μM) for 24 h. The concentrations of 4HNE, H2O2, and Aβ42 peptide were chosen according to their patho-physiological concentrations. The concentrations of LA-GAGR and HA-GAGR were chosen because, within the same volume, the total numbers of sugar units in the polysaccharides at the concentrations are close to that of 1 μM midi-GAGR. The viability of neurons was assessed using LIVE/DEAD® Viability/Cytotoxicity Assay Kit in which membrane-permeant calcein AM is cleaved by esterase in live cells, thus yielding green fluorescence, and membrane-impermeant ethidium homodimer-1 stains the nucleic acids of plasma membrane-compromised cells with red fluorescence. The numbers of green (live) and red (dead) neurons in each condition were counted using Metamorph. Although the intensities of green fluorescent signals in neurons treated with either free radicals or Aβ42 peptide were weak, the neurons were included in the counting. About 8-9% of vehicle-treated neurons died during the process of live/dead cell assay (FIGS. 23A-23F, FIGS. 24A-24C).

[5] = system: primary mouse cortical neurons (E17, DIV4); test: neurite outgrowth in primary mouse cortical neurons; format: cell-based; settings: 2 days; midi-GAGR, dextran, alginate 1 μM; LA-GAGR 0.1 μM; HA-GAGR 0.01 μM
Experimental: To analyze the effect of polysaccharides on neurite outgrowth, primary mouse cortical neurons were treated with vehicle (H2O) or 1 μM of dextran, alginate, or midi-GAGR, 0.01 μM of HA-GAGR, or 0.1 μM of LA-GAGR for 2 days prior to immunocytochemistry using anti-α-tubulin antibody and secondary Alexa488nm antibody. An etched grid coverslip containing 200 numbered boxes was used to select neurons objectively for image acquisition and analysis. A total of 24 boxes were randomly selected per treatment group. All the neurons having total neurite length longer than 4 times of the diameter of neuron cell body were chosen for image analysis. The total length of the neurites of each neuron was measured using Metamorph and used to calculate average total neurite length. To examine the effect of polysaccharides on the phosphorylation (activation) of nuclear CREB, neurons were stained with anti-pCREB antibody (Abcam & Santa Cruz biotechnologies, 2nd antibody with Alexa568nm), anti-α-tubulin antibody (Sigma, 2nd antibody with Alexa488nm), and DAPI (Sigma) after two-day incubation with vehicle (H2O) or 1 μM of dextran, alginate, or midi-GAGR, 0.01 μM of HA-GAGR, or 0.1 μM of LA-GAGR. […] The images of neurons on coverslips were taken by confocal microscopy at the same gain (850), offset (−0.01), and exposure time (2 sec). The intensity of the staining of nuclear pCREB was measured using Metamorph and used to calculate average intensity. In addition, the phosphorylation of CREB in the cytosols of mouse cortical neurons treated with polysaccharides were detected by immunoblotting. Primary mouse neurons were dissected from 16 mouse embryos (E17) and plated in the wells of 6-well plates (1×10^6 cells/well), differentiated for 6 days, and treated with polysaccharides for 48 h. […] The protein bands on blots recognized by anti-pCREB (Santa Cruz Biotechnologies) and anti-CREB antibodies were detected on Amersham Hyperfilm™ ECL films (GE Healthcare Life Science) using SuperSignal® West Pico Chemiluminescent Substrate (Thermo Scientific).

[6] = system: pCREB in mouse cortical neurons; test: nuclear pCREB in midi-GAGR-treated mouse cortical neurons pre-treated with signaling inhibitors; format: cell-based; settings: inhibitor 6 h (SU5402 4 μM, staurosporine 3 nM, U0126 10 μM, LY294002 20 μM, KN-62 10 μM, PF-573228 1 μM), then 1 μM midi-GAGR 48 h
Experimental: To analyze the effect of polysaccharides on neurite outgrowth, primary mouse cortical neurons were treated with vehicle (H2O) or 1 μM of dextran, alginate, or midi-GAGR, 0.01 μM of HA-GAGR, or 0.1 μM of LA-GAGR for 2 days prior to immunocytochemistry using anti-α-tubulin antibody and secondary Alexa488nm antibody. An etched grid coverslip containing 200 numbered boxes was used to select neurons objectively for image acquisition and analysis. A total of 24 boxes were randomly selected per treatment group. All the neurons having total neurite length longer than 4 times of the diameter of neuron cell body were chosen for image analysis. The total length of the neurites of each neuron was measured using Metamorph and used to calculate average total neurite length. To examine the effect of polysaccharides on the phosphorylation (activation) of nuclear CREB, neurons were stained with anti-pCREB antibody (Abcam & Santa Cruz biotechnologies, 2nd antibody with Alexa568nm), anti-α-tubulin antibody (Sigma, 2nd antibody with Alexa488nm), and DAPI (Sigma) after two-day incubation with vehicle (H2O) or 1 μM of dextran, alginate, or midi-GAGR, 0.01 μM of HA-GAGR, or 0.1 μM of LA-GAGR. […] The images of neurons on coverslips were taken by confocal microscopy at the same gain (850), offset (−0.01), and exposure time (2 sec). The intensity of the staining of nuclear pCREB was measured using Metamorph and used to calculate average intensity. In addition, the phosphorylation of CREB in the cytosols of mouse cortical neurons treated with polysaccharides were detected by immunoblotting. Primary mouse neurons were dissected from 16 mouse embryos (E17) and plated in the wells of 6-well plates (1×10^6 cells/well), differentiated for 6 days, and treated with polysaccharides for 48 h. Then, neurons were harvested and lysed in 1% Igepal CA-630 (Sigma)-containing PMEE buffer plus protease and phosphatase inhibitor cocktails (Sigma) for protein extraction. Extracted proteins were separated in 4-12% NuPAGE Bis-Tris protein gels (Life Technologies) and transferred to nitrocellulose membrane (GE Healthcare Life Science, Pittsburgh, Pa.) using a semidry blotter (Hoefer, Inc., San Francisco, Calif.). The protein bands on blots recognized by anti-pCREB (Santa Cruz Biotechnologies) and anti-CREB antibodies were detected on Amersham Hyperfilm™ ECL films (GE Healthcare Life Science) using SuperSignal® West Pico Chemiluminescent Substrate (Thermo Scientific).
Pharmacological agents were used to inhibit signaling molecules downstream of FGFR1 that mediate CREB phosphorylation. […] PF-573228 (PF, 1 μM) that inhibits FAK which sits at the bottleneck of the signaling pathway downstream of NCAM180 was also included to examine whether NCAM180 is involved in midi-GAGR-mediated CREB phosphorylation or not. […]

[7] = system: pCREB in mouse cortical neurons; test: nuclear pCREB immunostaining in mouse cortical neurons (Example 4); format: cell-based; settings: 48 h; midi-GAGR, alginate, dextran 1 μM; LA-GAGR 0.1 μM; HA-GAGR 0.01 μM
Experimental: (§3) To analyze the effect of polysaccharides on neurite outgrowth, primary mouse cortical neurons were treated with vehicle (H2O) or 1 μM of dextran, alginate, or midi-GAGR, 0.01 μM of HA-GAGR, or 0.1 μM of LA-GAGR for 2 days prior to immunocytochemistry using anti-α-tubulin antibody and secondary Alexa488nm antibody. An etched grid coverslip containing 200 numbered boxes was used to select neurons objectively for image acquisition and analysis. A total of 24 boxes were randomly selected per treatment group. All the neurons having total neurite length longer than 4 times of the diameter of neuron cell body were chosen for image analysis. The total length of the neurites of each neuron was measured using Metamorph and used to calculate average total neurite length. […] The intensity of the staining of nuclear pCREB was measured using Metamorph and used to calculate average intensity. In addition, the phosphorylation of CREB in the cytosols of mouse cortical neurons treated with polysaccharides were detected by immunoblotting. […] The protein bands on blots recognized by anti-pCREB (Santa Cruz Biotechnologies) and anti-CREB antibodies were detected on Amersham Hyperfilm™ ECL films (GE Healthcare Life Science) using SuperSignal® West Pico Chemiluminescent Substrate (Thermo Scientific). […]

[8] = ABTS Antioxidant Assay Kit; format: biochemical; settings: 10 μM
Experimental: The antioxidant capacity of midi-GAGR was measured using ABTS Antioxidant Assay Kit (Zenbio Co.). […] This was slightly stronger than antioxidant capacity of LA-GAGR (10 μM LA-GAGR=15.4 μM trolox) (Table 2).

[9] = system: pCREB in mouse cortical neurons; test: pCREB immunoblotting of cytosols of mouse cortical neurons; format: cell-based; settings: 48 h, same concentrations
Experimental: as §3

[10] = system: rat cortical neurons (E17, DIV6); test: FGFR1 dependence of neuroprotection against 4HNE, LIVE/DEAD assay; format: cell-based
Description: as §2, with “To examine the extent to which midi-GAGR-mediated neuroprotection depends on FGFR1, rat cortical neurons (E17, DIV5) were pre-treated with 4 μM SU5402 (Sigma) for 6 h and treated with 10 μM 4HNE and either vehicle or 1 μM midi-GAGR for 24 h prior to cell viability/cytotoxicity assay. As controls, neurons were treated with SU5402, midi-GAGR, 4HNE, 4HNE plus midi-GAGR, or SU5402 plus midi-GAGR.” left out

[11] = pre-treatment 24 h (midi-GAGR, alginate, dextran 1 μM; LA-GAGR 0.1 μM; HA-GAGR 0.01 μM), then 10 μM 4HNE 24 h
[12] = pre-treatment 24 h (same concentrations), then 2 μM Aβ42 peptide 48 h
[13] = pre-treatment 24 h (same concentrations), then 50 μM H2O2 24 h

alginate
increase in levels of nuclear p-CREB [1]: not significantly increased | 6-OHDA-induced cell death [2]: did not | increase in levels of nuclear p-CREB [3]: not significantly increased | percent of neuron death [4, 11]: reduced | percent of neuron death [4, 12]: did not decrease | percent of neuron death [4, 13]: did not reduce | fold change in average total neurite length vs vehicle [5]: did not enhance neuritogenesis

CN([C@@H](Cc1ccc(OS(=O)(=O)c2cccc3cnccc23)cc1)C(=O)N1CCN(c2ccccc2)CC1)S(=O)(=O)c1cccc2cnccc12 [KN-62]
effect of inhibitor pre-treatment on average intensity of pCREB in midi-GAGR-treated neurons [6]: decreased slightly but still statistically significantly

[D-Glc(β1→4)D-GlcA(β1→4)D-Glc(β1→4)L-Rha(α1→3)]n [LA-GAGR]
percent of neuron death [4, 11]: 10% | percent of neuron death [4, 12]: ~10% | percent of neuron death [4, 13]: ~13% | fold change in average total neurite length vs vehicle [5]: ~1.6 fold | average intensity of nuclear pCREB vs vehicle [7]: ~2 fold | antioxidant capacity, ABTS assay [8]: 15.4 μM Trolox | levels of pCREB by immunoblotting vs control [9]: significantly increased

CS(=O)(=O)c1cccc(CNc2nc(Nc3ccc4c(c3)CCC(=O)N4)ncc2C(F)(F)F)c1 [PF-573228]
effect of inhibitor pre-treatment on average intensity of pCREB in midi-GAGR-treated neurons [6]: did not decrease

N#CC(=C(/N)Sc1ccccc1N)/C(C#N)=C(\N)Sc1ccccc1N [U0126]
effect of inhibitor pre-treatment on average intensity of pCREB in midi-GAGR-treated neurons [6]: significantly decreased

Cc1c[nH]c(/C=C2\C(=O)Nc3ccccc32)c1CCC(=O)O [SU5402]
effect of inhibitor pre-treatment on average intensity of pCREB in midi-GAGR-treated neurons [6]: significantly decreased | percent of dead cells ([10]; SU5402 4 μM alone, no 4HNE): did not increase | percent of dead cells ([10]; SU5402 4 μM pre-treatment 6 h, then 10 μM 4HNE): ~80%
